Consider two compounds from PMC12221989, “One-carbon homologation of alkenes” (Nature, 2025).

Data set [1] concerns Jurkat cells. Put plainly: IL-2 release assay, Jurkat cells stimulated with anti-CD3/anti-CD28. The following applies: for suppression of IL-2 secretion (in words): at high concentrations (≥1 µM), Jurkat T cells; for IL-2 levels, Mean: mean of three replicates normalized to the vehicle control. The data set is classed as cell-based, human. Here is the method:
Interleukin-2 (IL-2) release assays were conducted by Eurofins Pan Labs to determine ability for the analogues to inhibit IL-2 secretion from Jurkat cells following stimulation with anti-CD3 and anti-CD28 for a period of 24 hours. Data shown are means of three replicates normalized to the vehicle control
1) Cryopreserved Jurkat cells were thawed and cultured according to established protocols for four days at 37°C, 5% CO2 prior to assay.
2) Jurkat cells were harvested and seeded into 96-well plates at a density of 2x10^5 cells/well with […]
penicillin/streptomycin, and 2 mM L-glutamine).
3) Cells were incubated at 37°C, 5% CO2 for 1 hour prior to the addition of test agents.
4) The test agents were serially diluted in DMSO to 1000X assay concentrations, then further diluted to 20X assay concentrations in culture medium. The reference inhibitor Cyclosporin A (Sigma Aldrich catalog #C1832) was diluted to 1000X assay concentrations in DMSO before dilution to 20X assay concentration in culture medium.
5) The test agents, reference inhibitor, and diluted vehicle controls were added to the cells in volumes of 10 μL in triplicate and incubated for 1 hour at 37°C, 5% CO2. […]
concentrations in culture medium. The corresponding isotype controls were diluted to 5X assay concentrations in culture medium.
7) Diluted anti-CD3/anti-CD28 was added to test agent and positive control wells in volumes of 40 μL according to the plate map. Isotype controls were added to the isotype control wells.
Culture medium was added to vehicle and unstimulated control wells. […]
assay volumes of 200 μL and control concentrations of 50 ng/mL cyclosporin A (reference inhibitor), 0.1% DMSO (vehicle), 15 μg/mL anti-CD3, and 15 μg/mL anti-CD28.
8) Cells were incubated for 24 hours at 37°C, 5% CO2.
9) At the end of the incubation period, plates were centrifuged at 200g for 10 minutes. Cell culture supernatants were collected and stored at -80°C until needed for analysis.
Data Analysis and Analyte Limits of Detection
IL-2 cytokine levels in cell culture supernatants were determined using Luminex methodology per the manufacturer’s protocol using the Human Cytokine/Chemokine/Growth Factor Panel A Kit from Millipore Sigma (catalog #HCYTA-60K) with standard ranges and limits of detection in Table S9. Levels of each cytokine were interpolated from standard curves using non-linear regression analysis in Belysa Software (Millipore Sigma). The raw data in the form of median fluorescence unit was interpolated into test concentrations (pg/mL). The interpolated data were then normalized to the vehicle control
Table S9. Analyte limit of detection
Analyte Lowest standard (pg/mL) Highest standard (pg/mL) Sensitivity (pg/mL) […]
Reported mean values (pg/mL) are from three biological replicates normalized to the vehicle […]
Fig. S5. IL-2 release by Jurkat cells following stimulation with anti-CD3/anti-CD28 and treatment with the indicated test agent for 24 hours. Error bars indicate the standard error of the […]

Data set [2] deals with calcineurin in the presence of Cyclophilin A. Put plainly: Calcineurin inhibition assay (phosphatase activity in the presence of Cyclophilin A). The data set is classed as biochemical. The settings on record: for IC50: with CypA, calcineurin/calmodulin, RII phosphopeptide substrate, 30 °C 45 min, Malachite green A620, duplicate, IC50 from mean averages. Here is the method: Calcineurin inhibition assay
Calcineurin inhibition assays were conducted by Eurofins Integrated Discovery UK Ltd (EID) to determine the effect of compounds on the activity of calcineurin in the presence of Cyclophilin A. Assays were performed in duplicate, with IC50 values calculated from mean […]
Compounds were diluted with and without immunophilin (CypA) in a 96-well plate. After addition of calcineurin/calmodulin complex, the plate was incubated at 30 °C for 10 minutes.
The addition of the RII phosphopeptide substrate initiated the reaction, and the plate was […]
The reaction was stopped by the addition of Malachite green reagent. The plate was incubated at room temperature to allow colour development (5 – 20 mins). After sufficient colour has developed, the absorbance is read at 620 nm. Blank subtracted absorbance readings are plotted against compound concentration to determine IC50 values or % inhibition at the top concentration.

The target in data set [3] is Human Cyclophilin A (Homo sapiens, UniProt P62937). The data set is described as follows: PPIase TR-FRET competitive binding assay. The protocol: PPIase TR-FRET competitive binding assay
Sequence of Human Cyclophilin A (P62937 whole entry): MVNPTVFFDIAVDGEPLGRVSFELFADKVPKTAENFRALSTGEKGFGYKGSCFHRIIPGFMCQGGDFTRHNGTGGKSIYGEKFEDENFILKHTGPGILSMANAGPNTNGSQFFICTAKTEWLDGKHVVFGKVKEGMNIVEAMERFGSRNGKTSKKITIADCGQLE
Cyclophilin A assays were conducted by Eurofins Integrated Discovery UK Ltd (EID) to determine the inhibitory activity of the analogues against the Human Cyclophilin A in a TR-FRET Competitive Binding assay. Assays were performed in duplicate, with Kd values calculated from mean averages. […]
binding to the CypA enzyme: the CypA enzyme, tagged with a polyhistidine sequence, forms a complex with an anti-6xHis antibody labelled with a fluorescent donor, F(d), and the enzyme […]
Compounds are diluted from DMSO stocks to 50-fold the final concentration and then in assay buffer to 2-fold the final assay plate concentration. An equal volume of compound is added to the master mix in the assay plate containing the enzyme/antibody/ligand complex, with a final concentration of detergent of 0.01%. This is incubated for 30 mins at room temperature and the plate read at 2 wavelengths (A and B) to detect emission from F(d) and F(a), respectively. The ratio B/A is calculated, blank subtracted and either expressed as a percentage of the ‘no inhibitor’ control or the blank subtracted values are plotted against the inhibitor concentration in Log10 Molar and fitted using one site Ki nonlinear regression to determine the Kd. Where possible, compound Kds are determined from duplicate data points. Each assay plate is set up with ‘no enzyme’ blanks and ‘no inhibitor’ controls, which are used to determine the Z’ value for each plate.
(In general: TR-FRET usually uses a lanthanide donor and a delayed reading to cut background.)

Data set [4] can be described thus: in vitro. The settings on record: human. Here is the method: Metabolic stability assay
Hepatic microsomal stability assays were conducted by Charles River Laboratories. Assays were performed in duplicate.
The stability of the test compound (1 µM) was measured following incubation at 37 °C with […] (0.5 mg protein/mL) in the presence of the cofactor, NADPH.
Incubates were prepared in duplicate, with aliquots removed at 0, 5, 10, 20 and 40 minutes and reactions terminated, and the compound was extracted by the addition of solvent. The disappearance of the parent compound was be monitored by LC-MS/MS and the half-life determined over the time-course of incubation. The half-life value was used to calculate the in vitro intrinsic clearance expressed as µL/min/mg protein.
Table S11. Metabolic Stability Data
Half- Half- Half- Clint Clint Mean Clint
Compound Cofactor life life Life (uL/min/mg (uL/min/mg (uL/min/mg Species (min) (min) (min) protn) n=1 protn) n=2 protn) (results)

Data set [5] is described as follows: Reversed-phase HPLC retention as measure of lipophilicity. The following applies: reversed-phase C18, Fig. S4-b; corroborates calculated lipophilicity.
[6] abbreviates: in vitro calcineurin phosphatase activity assay.

The structures appear in SMILES notation.

`C/C=C/CCC[C@@H](C)[C@@H](O)[C@H]1C(=O)N[C@@H](CC)C(=O)N(C)CC(=O)N(C)[C@@H](CC(C)C)C(=O)N[C@@H](C(C)C)C(=O)N(C)[C@@H](CC(C)C)C(=O)N[C@@H](C)C(=O)N[C@H](C)C(=O)N(C)[C@@H](CC(C)C)C(=O)N(C)[C@@H](CC(C)C)C(=O)N(C)[C@@H](C(C)C)C(=O)N1C` [compound 22, E-bishomo Cyclosporine-A]: in data set [1], the “suppression of IL-2 secretion (in words)” value is “effectively suppressed IL-2 secretion”. Moreover, the “IL-2 levels, Mean” value in data set [1] (test agent 0.032 µM) was found to be 7.0 pg/mL; in data set [1] (test agent 0.10 µM), 1.9 pg/mL; in data set [1] (test agent 0.32 µM), 1.1 pg/mL; in data set [1] (test agent 1.0 µM), 0.9 pg/mL; in data set [1] (test agent 3.2 µM), 0.5 pg/mL; in data set [1] (test agent 10 µM) it was 0.7 pg/mL. Besides, the “calcineurin inhibition compared with cyclosporine A (in words)” value in data set [2] (setting [6]) is “retained comparable potency to cyclosporine A”. Also, in data set [2], the IC50 amounted to 0.158 µM. The affinity in data set [3], expressed as Kd, was 0.0236 µM. In addition, the “Clint (uL/min/mg protn) n=1” value in data set [4] was 81 uL/min/mg protn. Further, in data set [4], the “Clint (uL/min/mg protn) n=2” value worked out at 78 uL/min/mg protn. The “Half-life (min) n=1” value in data set [4] was 17 min. For the same compound, the “Mean Clint (uL/min/mg protn)” value in data set [4] is 79 uL/min/mg protn. In addition, the “increase of HPLC retention time upon each homologation event” value in data set [5] is listed as ~ 2.5 minutes.
Consider `C/C=C/CC[C@@H](C)[C@@H](O)[C@H]1C(=O)N[C@@H](CC)C(=O)N(C)CC(=O)N(C)[C@@H](CC(C)C)C(=O)N[C@@H](C(C)C)C(=O)N(C)[C@@H](CC(C)C)C(=O)N[C@@H](C)C(=O)N[C@H](C)C(=O)N(C)[C@@H](CC(C)C)C(=O)N(C)[C@@H](CC(C)C)C(=O)N(C)[C@@H](C(C)C)C(=O)N1C` [compound 21, E-homo Cyclosporine-A], for which the “suppression of IL-2 secretion (in words)” value in data set [1] was “effectively suppressed IL-2 secretion”. For the same compound, the “IL-2 levels, Mean” value in data set [1] (test agent 0.10 µM) is reported as 11.7 pg/mL. In data set [1] (test agent 0.32 µM), the “IL-2 levels, Mean” value turned out to be 3.5 pg/mL. For the same compound, in data set [1] (test agent 1.0 µM), the “IL-2 levels, Mean” value amounted to 1.6 pg/mL. The “IL-2 levels, Mean” value in data set [1] (test agent 3.2 µM) is 1.1 pg/mL. For the same compound, the “IL-2 levels, Mean” value in data set [1] (test agent 10 µM) was 1.0 pg/mL. Besides, the “decrease in phosphatase activity compared with cyclosporine A” value in data set [2] (setting [6]) amounted to 3.5 fold. In addition, in data set [2], the IC50 turned out to be 0.401 µM. Also, the equilibrium dissociation constant (Kd) in data set [3] was 0.0767 µM. This compound also registered a half-life at 1 µM in data set [4] (both, liver microsomes) of 32 min. Moreover, in data set [4], the “Clint (uL/min/mg protn) n=1” value came out at 40 uL/min/mg protn, the “Clint (uL/min/mg protn) n=2” value was 46 uL/min/mg protn, the “Half-life (min) n=1” value amounted to 35 min and the “Half-life (min) n=2” value is on record as 30 min. For the same compound, in data set [4], the “Mean Clint (uL/min/mg protn)” value is listed as 43 uL/min/mg protn. For the same compound, in data set [5], the “increase of HPLC retention time upon each homologation event” value is on record as ~ 2.5 minutes.

By IC50 is commonly meant the concentration at which inhibition is half-maximal. By Kd is commonly meant a measure of binding affinity in units of concentration. A low value points to a tighter complex. In general, half-life refers to the time needed for the level to fall by half in the phase considered. Lower therefore signals rapid decline.
